Where “and” joins values, the source holds several entries; their conditions need not be identical. Identical values can stand only once. Inconclusive results and toxic doses are left out. Cut-off read from the data, not from the text of the source: active = T/C of 150% or more; inactive = T/C below 125%.
System: L1210 leukemia ip in BDF1 mice, survival T/C
Test: NCI In Vivo Anticancer Drug Screen. Data for tumor model L1210 Leukemia (intraperitoneal) in B6D2F1 (BDF1) mice
Conditions: endpoint: mean survival time, higher = longer survival
Summary of the method: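 Antitumor effect is assessed in tumor-bearing animals. Survival in the compound arm is compared with a vehicle-dosed control arm and expressed as their quotient.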

[1] = dose: 100.0 mg/kg/injection, schedule: Q01DX001 (ip), vehicle: Klucel (hydroxypropylcellulose) (HPC)
[2] = dose: 25.0 mg/kg/injection, schedule: Q04DX003 (ip), vehicle: Klucel (hydroxypropylcellulose) (HPC)
[3] = dose: 50.0 mg/kg/injection, schedule: Q04DX003 (ip), vehicle: Klucel (hydroxypropylcellulose) (HPC)
[4] = dose: 100.0 mg/kg/injection, schedule: Q01DX001 (ip), vehicle: other
[5] = dose: 200.0 mg/kg/injection, schedule: Q01DX001 (ip), vehicle: other
[6] = dose: 100.0 mg/kg/injection, schedule: Q01DX009 (ip), vehicle: saline
[7] = dose: 200.0 mg/kg/injection, schedule: Q01DX009 (ip), vehicle: saline
[8] = dose: 200.0 mg/kg/injection, schedule: Q04DX003 (ip), vehicle: saline
[9] = dose: 400.0 mg/kg/injection, schedule: Q04DX003 (ip), vehicle: saline
[10] = dose: 100.0 mg/kg/injection, schedule: Q04DX003 (ip), vehicle: saline
[11] = dose: 50.0 mg/kg/injection, schedule: Q01DX001 (ip), vehicle: saline
[12] = dose: 100.0 mg/kg/injection, schedule: Q01DX001 (ip), vehicle: saline
[13] = dose: 100.0 mg/kg/injection, schedule: Q01DX009 (ip), vehicle: Klucel (hydroxypropylcellulose) (HPC)
[14] = dose: 200.0 mg/kg/injection, schedule: Q01DX009 (ip), vehicle: Klucel (hydroxypropylcellulose) (HPC)
[15] = dose: 400.0 mg/kg/injection, schedule: Q01DX009 (ip), vehicle: Klucel (hydroxypropylcellulose) (HPC)

Measured: T/C

CSC1C(OC(=O)c2ccccc2)C(COC(=O)c2ccccc2)OC1n1cnc2ncnc(NC(=O)c3ccccc3)c21 (stereo not drawn)
inactive: dose: 100.0 mg/kg/injection, schedule: Q01DX005 (ip), vehicle: saline 100 % of control | dose: 200.0 mg/kg/injection, schedule: Q01DX005 (ip), vehicle: saline 92 % of control

CN(C)/N=C(\Cc1ccccc1)c1ccccc1
inactive: [1] 99 % of control | dose: 200.0 mg/kg/injection, schedule: Q01DX001 (ip), vehicle: Klucel (hydroxypropylcellulose) (HPC) 99 % of control | dose: 400.0 mg/kg/injection, schedule: Q01DX001 (ip), vehicle: Klucel (hydroxypropylcellulose) (HPC) 98 % of control

CN(C(=O)C1C(C(=O)O)C2(Cl)C(Cl)=C(Cl)C1(Cl)C2(Cl)Cl)C1CCCCC1 (stereo not drawn)
inactive: dose: 100.0 mg/kg/injection, schedule: Q04DX002 (ip), vehicle: Klucel (hydroxypropylcellulose) (HPC) 110 % of control | dose: 200.0 mg/kg/injection, schedule: Q04DX002 (ip), vehicle: Klucel (hydroxypropylcellulose) (HPC) 98 % of control

Cc1cn(C2CCCCO2)c(=O)nc1NO (stereo not drawn)
inactive: dose: 100.0 mg/kg/injection, schedule: Q01DX001 (ip), vehicle: carboxymethylcellulose (CMC) 95 % of control | dose: 200.0 mg/kg/injection, schedule: Q01DX001 (ip), vehicle: carboxymethylcellulose (CMC) 90 % of control | dose: 400.0 mg/kg/injection, schedule: Q01DX001 (ip), vehicle: carboxymethylcellulose (CMC) 108 % of control

C/C=C/C=C\COC(=O)C1CCCC1
inactive: dose: 100.0 mg/kg/injection, schedule: Q04DX002 (ip), vehicle: saline 103 % of control and 107 % of control | dose: 200.0 mg/kg/injection, schedule: Q04DX002 (ip), vehicle: saline 96 % of control and 98 % of control | dose: 400.0 mg/kg/injection, schedule: Q04DX002 (ip), vehicle: saline 107 % of control | dose: 600.0 mg/kg/injection, schedule: Q04DX002 (ip), vehicle: saline 107 % of control

CC(C)C(CCN1CCCCC1)(CNC1=NCCN1)c1cccc2ccccc12 (stereo not drawn)
inactive: dose: 3.12 mg/kg/injection, schedule: Q04DX002 (ip), vehicle: Klucel (hydroxypropylcellulose) (HPC) 103 % of control | dose: 5.0 mg/kg/injection, schedule: Q01DX009 (ip), vehicle: Klucel (hydroxypropylcellulose) (HPC) 99 % of control | dose: 6.25 mg/kg/injection, schedule: Q04DX002 (ip), vehicle: Klucel (hydroxypropylcellulose) (HPC) 100 % of control | dose: 10.0 mg/kg/injection, schedule: Q01DX009 (ip), vehicle: Klucel (hydroxypropylcellulose) (HPC) 102 % of control | dose: 12.5 mg/kg/injection, schedule: Q04DX002 (ip), vehicle: Klucel (hydroxypropylcellulose) (HPC) 103 % of control | dose: 12.5 mg/kg/injection, schedule: Q04DX003 (ip), vehicle: Klucel (hydroxypropylcellulose) (HPC) 92 % of control | dose: 20.0 mg/kg/injection, schedule: Q01DX009 (ip), vehicle: Klucel (hydroxypropylcellulose) (HPC) 89 % of control | [2] 97 % of control | [3] 90 % of control

NC(=S)N/N=C(\c1ccc(Br)cc1)C1CC1
inactive: dose: 2.0 mg/kg/injection, schedule: Q01DX Z (ip), vehicle: carboxymethylcellulose (CMC) 105 % of control | dose: 4.0 mg/kg/injection, schedule: Q01DX Z (ip), vehicle: carboxymethylcellulose (CMC) 102 % of control | dose: 4.0 mg/kg/injection, schedule: Q01DX Z (oral), vehicle: carboxymethylcellulose (CMC) 115 % of control | dose: 8.0 mg/kg/injection, schedule: Q01DX Z (ip), vehicle: carboxymethylcellulose (CMC) 113 % of control | dose: 8.0 mg/kg/injection, schedule: Q01DX Z (oral), vehicle: carboxymethylcellulose (CMC) 115 % of control | dose: 16.0 mg/kg/injection, schedule: Q01DX Z (oral), vehicle: carboxymethylcellulose (CMC) 107 % of control

CC1(C)C(=O)C=C(c2ccccc2)C1(O)c1ccccc1 (stereo not drawn)
inactive: dose: 100.0 mg/kg/injection, schedule: Q04DX003 (ip), vehicle: saline with Tween-80 99 % of control | dose: 200.0 mg/kg/injection, schedule: Q04DX003 (ip), vehicle: saline with Tween-80 96 % of control | dose: 400.0 mg/kg/injection, schedule: Q04DX003 (ip), vehicle: saline with Tween-80 96 % of control

CO/C=C(\C)C(=O)NC(=O)Nc1ccccc1
inactive: [4] 93 % of control | [5] 98 % of control | dose: 400.0 mg/kg/injection, schedule: Q01DX001 (ip), vehicle: other 96 % of control

C/C(=N/N(C)C)c1ccc([N+](=O)[O-])cc1
inactive: [6] 113 % of control | [7] 89 % of control

CCn1c(=O)n(C)c(=O)n1C(=O)c1ccccc1
inactive: dose: 100.0 mg/kg/injection, schedule: Q04DX003 (ip), vehicle: carboxymethylcellulose (CMC) 102 % of control | dose: 200.0 mg/kg/injection, schedule: Q04DX003 (ip), vehicle: carboxymethylcellulose (CMC) 104 % of control | dose: 400.0 mg/kg/injection, schedule: Q04DX003 (ip), vehicle: carboxymethylcellulose (CMC) 109 % of control

O=C1NC(=O)C([N+](=O)[O-])C(=O)N1
inactive: dose: 12.5 mg/kg/injection, schedule: Q04DX003 (ip), vehicle: saline 104 % of control | dose: 25.0 mg/kg/injection, schedule: Q04DX003 (ip), vehicle: saline 95 % of control | dose: 50.0 mg/kg/injection, schedule: Q04DX003 (ip), vehicle: saline 93 % of control | [8] 98 % of control | [9] 91 % of control

CC(C)CN(C)N=Nc1ccc(C(N)=O)cc1
inactive: [4] 100 % of control | [5] 91 % of control

CC(=O)OC1CC2c3ccccc3C1c1cccc[n+]12 (stereo not drawn)
inactive: dose: 12.5 mg/kg/injection, schedule: Q01DX001 (ip), vehicle: Klucel (hydroxypropylcellulose) (HPC) 97 % of control | dose: 12.5 mg/kg/injection, schedule: Q01DX009 (ip), vehicle: Klucel (hydroxypropylcellulose) (HPC) 100 % of control | dose: 25.0 mg/kg/injection, schedule: Q01DX001 (ip), vehicle: Klucel (hydroxypropylcellulose) (HPC) 101 % of control | dose: 25.0 mg/kg/injection, schedule: Q01DX009 (ip), vehicle: Klucel (hydroxypropylcellulose) (HPC) 102 % of control | [2] 101 % of control | dose: 50.0 mg/kg/injection, schedule: Q01DX001 (ip), vehicle: Klucel (hydroxypropylcellulose) (HPC) 105 % of control | dose: 50.0 mg/kg/injection, schedule: Q01DX009 (ip), vehicle: Klucel (hydroxypropylcellulose) (HPC) 104 % of control | [3] 94 % of control | dose: 75.0 mg/kg/injection, schedule: Q01DX009 (ip), vehicle: Klucel (hydroxypropylcellulose) (HPC) 88 % of control | [1] 101 % of control

O=C(COc1ccc(Cl)c(Cl)c1)Nc1ccc[n+](Cc2ccc([N+](=O)[O-])cc2)c1
inactive: [10] 95 % of control | [8] 95 % of control | [9] 104 % of control

O=C1CCN2C=CC=CC2=N1
inactive: [6] 98 % of control | [10] 100 % of control | [7] 93 % of control | [8] 101 % of control | dose: 400.0 mg/kg/injection, schedule: Q01DX009 (ip), vehicle: saline 97 % of control | [9] 106 % of control

CC(=O)SCCCON1C(=O)c2ccccc2C1=O
inactive: [11] 100 % of control | [12] 96 % of control | dose: 200.0 mg/kg/injection, schedule: Q01DX001 (ip), vehicle: saline 102 % of control | dose: 400.0 mg/kg/injection, schedule: Q01DX001 (ip), vehicle: saline 102 % of control

COP(S)(=N/N=C/c1ccccn1)OC
inactive: dose: 12.5 mg/kg/injection, schedule: Q04DX003 (ip), vehicle: saline with Tween-80 104 % of control | dose: 25.0 mg/kg/injection, schedule: Q04DX003 (ip), vehicle: saline with Tween-80 95 % of control

Cc1cccc(C)c1NC(=O)NC(C)C
inactive: [13] 106 % of control | dose: 100.0 mg/kg/injection, schedule: Q04DX003 (ip), vehicle: Klucel (hydroxypropylcellulose) (HPC) 93 % of control | [14] 94 % of control | dose: 200.0 mg/kg/injection, schedule: Q04DX003 (ip), vehicle: Klucel (hydroxypropylcellulose) (HPC) 94 % of control | [15] 99 % of control | dose: 400.0 mg/kg/injection, schedule: Q04DX003 (ip), vehicle: Klucel (hydroxypropylcellulose) (HPC) 93 % of control

CCCCC(/C=C/c1ccc2ccccc2n1)CC (stereo not drawn)
inactive: [11] 103 % of control | [12] 113 % of control

O=C(/C=C/c1ccccc1)Nc1ccccc1C(F)(F)F
inactive: [13] 98 % of control | [14] 104 % of control | [15] 101 % of control

Source: PubChem BioAssay AID248 (DTP/NCI, 2004)
